The values that follow come from ChEMBL document CHEMBL4425119, “Design and Development of a Series of Potent and Selective Type II Inhibitors of CDK8” (ACS Med Chem Lett, 2016).

A short description of data set [1]: Permeability across basolateral to apical side of MDCK cells. The class given is ADME, cell-based, Canis lupus familiaris. The settings on record: dog.
Data set [2] in a line: Permeability across apical to basolateral side of MDCK cells. It is filed as ADME, cell-based, Canis lupus familiaris. The settings on record: dog, read-out: permeability.

In general, Papp B→A refers to how fast a substance crosses the layer from the basolateral side. In the case of `CNc1nccc(N2CC[C@H](NC(=O)Nc3ccc(CN4CCN(C)CC4)c(C(F)(F)F)c3)C2)n1`, the apparent permeability from basolateral to apical (Papp B→A) in data set [1] is 45 nm/s. Also, the Papp A→B in data set [2] worked out at 41 nm/s.
On the same counts, the results for `CNc1nccc(N2CC[C@H](NC(=O)Nc3ccc(C)c(Cl)c3)C2)n1` are 70 nm/s and 39 nm/s.
On the same counts, the results for `CNc1nccc(N2CC[C@H](NC(=O)Nc3ccc(CN4CCOCC4)c(C(F)(F)F)c3)C2)n1` are 122 nm/s and 124 nm/s.
In turn, `CNc1nccc(N2CC[C@H](NC(=O)Nc3ccc(Cl)c(C(F)(F)F)c3)C2)n1` came in with a Papp B→A in data set [1] of 40 nm/s. Besides, the Papp A→B in data set [2] was determined as 39 nm/s.
On the same counts, the results for `CCN1CCN(Cc2ccc(NC(=O)N[C@H]3CCN(c4ccnc(NC)n4)C3)cc2C(F)(F)F)CC1` are 42 nm/s and 3 nm/s.
